Assay results as given in patent US8440697B2, “Treatment of heart failure” (Heart Metabolics Limited, priority 2007, dated 2013).

What was measured:
symptomatic HCM patients [1] = assay: Symptomatic status assessment (NYHA class, Minnesota Living with heart failure questionnaire) in HCM study; type: in vivo, human
Source text: (§1) The study was approved by the South Birmingham Research Ethics Committee and the investigation conforms with the principles outlined in the Declaration of Helsinki All study participants provided written informed consent. The study was a randomized, double blind, placebo-controlled parallel-group design of minimum 3 months duration. FIG. 3 represents a flow chart of the study. The pre-defined primary end point was peak oxygen consumption (peak VO2). Pre-defined secondary end points were symptomatic status, resting myocardial energetics (PCr/γ-ATP ratio) and diastolic function at rest and during exercise (nTTPF). 33 controls of similar age and gender distribution were recruited for comparison with baseline data of HCM patients. All controls had no history or symptoms of any cardiovascular disease with normal ECG and echocardiogram (LVEF≧55%).
(§2) Patients were recruited from dedicated cardiomyopathy clinics at The Heart Hospital, University College London Hospitals, London and Queen Elizabeth Hospital, Birmingham, UK between 2006 and 2008. Inclusion criteria were 18 to 80 years old symptomatic HCM patients (predominant symptom breathlessness) in sinus rhythm with reduced peak VO2 (<75% of predicted for age and gender) and no significant LVOT obstruction at rest (gradient<30 mmHg). Exclusion criteria were presence of epicardial coronary artery disease, abnormal liver function test, concomitant use of amiodarone or selective serotonin reuptake inhibitors (due to potential drug interactions with perhexiline), peripheral neuropathy and women of childbearing potential. Diabetic patients were also excluded to maintain the blindness of the study as Perhexiline may lead to a reduction in plasma glucose in such patients necessitating a reduction in anti-diabetic therapy. 46 consecutive consenting patients who met these entry criteria were recruited into the study.
All HCM patients filled in Minnesota Living with heart failure questionnaire and were also assessed for NHYA class.
(§3) Following baseline studies, patients were randomized in a double-blind fashion to receive either perhexiline (n=25) or placebo (n=21) 100 mg OD. Serum perhexiline levels were obtained at 1 and 4 weeks after initiation of the drug. Dose adjustments were advised by an unblinded physician according to serum level to achieve therapeutic level and to avoid drug toxicity. Identical dosage adjustments were also made for randomly allocated placebo-treated patients by the unblinded observer to ensure that blinding of the investigators was maintained. At the end of study, patients were re-evaluated as described earlier.
Data were analyzed using SPSS ver. 15.0 for Window and Microsoft Office Excel 2007, and expressed as Mean±Standard Deviation (SD). Comparison of continuous variables between Perhexiline and Placebo baseline data were determined by unpaired Student's t-test (2-tail) if variables were normally distributed and the Mann-Whitney U-test if the data were non-normally distributed. ANCOVA with baseline values as covariates was performed to test for the significance of differences in the perhexiline versus placebo group after treatment. For the primary end point, the sample size required to detect a change in peak Vo2 of 3 ml/kg/min versus placebo group with a power of 90% and probability of 5% is 44. 30 patients will be required to identify a 5% change in cardiac PCr/ATP ratio with a power of 90% and a p value of <0.05. 40 patients will be required to detect a change ≧25% in nTTPF with power of 0.99 with probability of 5%. Therefore, we aimed to study 50 patients including the drop-outs, 32 of them will take part in the MRS study.

symptomatic HCM patients [2] = assay: Side effects and deaths in HCM study; type: in vivo
Source text: as §1, with “(nTTPF).” for “(nTTPF). 33 controls of similar age and gender distribution were recruited for comparison with baseline data of HCM patients. All controls had no history or symptoms of any cardiovascular disease with normal ECG and echocardiogram (LVEF≧55%).”
Diabetic patients were also excluded to maintain the blindness of the study as Perhexiline may lead to a reduction in plasma glucose in such patients necessitating a reduction in anti-diabetic therapy. 46 consecutive consenting patients who met these entry criteria were recruited into the study.
as §3

symptomatic HCM patients [3] = assay: 31P cardiac magnetic resonance spectroscopy, resting myocardial energetics (PCr/γ-ATP ratio) in HCM study; type: in vivo, human
Source text: as §1
Patients were recruited from dedicated cardiomyopathy clinics at The Heart Hospital, University College London Hospitals, London and Queen Elizabeth Hospital, Birmingham, UK between 2006 and 2008. […]
In vivo myocardial energetics were measured using a MRS at 3-Tesla Phillips Achieva 3T scanner (Shivu G N, Abozguia K, Phan T T, Ahmed I, Henning A, Frenneaux M. (31)P magnetic resonance spectroscopy to measure in vivo cardiac energetics in normal myocardium and hypertrophic cardiomyopathy: Experiences at 3T. Eur J Radiol 2008). A java magnetic resonance user interface v3.0 (jMRUI) was used for analysis (see Naressi A, Couturier C, Castang I, de Beer R, Graveron-Demilly D. Java-based graphical user interface for MRUI, a software package for quantitation of in vivo/medical magnetic resonance spectroscopy signals. Comput Biol Med 2001; 31(4):269-286)). […] Data were analyzed by an investigator who was blinded to the participants' clinical status. […]
(§4) Following baseline studies, patients were randomized in a double-blind fashion to receive either perhexiline (n=25) or placebo (n=21) 100 mg OD. […] At the end of study, patients were re-evaluated as described earlier.
Data were analyzed using SPSS ver. […]

symptomatic HCM patients [4] = assay: Radionuclide ventriculography, diastolic filling (nTTPF) at rest and during exercise in HCM study; type: in vivo, human
Source text: as §1
Patients were recruited from dedicated cardiomyopathy clinics at The Heart Hospital, University College London Hospitals, London and Queen Elizabeth Hospital, Birmingham, UK between 2006 and 2008. Inclusion criteria were 18 to 80 years old symptomatic HCM patients (predominant symptom breathlessness) in sinus rhythm with reduced peak VO2 (<75% of predicted for age and gender) and no significant LVOT obstruction at rest (gradient<30 mmHg). […]
Diastolic filling were assessed by equilibrium R-wave gated blood pool scintigraphy using a standard technique at rest and during graded semi erect exercise on a cycle ergometer (Atherton J J, Moore T D, Lele S S et al. Diastolic ventricular interaction in chronic heart failure. Lancet 1997; 349 (9067):1720-1724; Lele S S, Macfarlane D, Morrison S, Thomson H, Khafagi F, Frenneaux M. Determinants of exercise capacity in patients with coronary artery disease and mild to moderate systolic dysfunction. Role of heart rate and diastolic filling abnormalities. Eur Heart J 1996; 17(2):204-212). Peak left ventricular filling rate in terms of end-diastolic count per second (EDC/s) and time to peak filling normalised for R—R interval (nTTPF) in milliseconds were measured at rest and during exercise (50% of heart rate reserve). […]
as §4
(§5) Data were analyzed using SPSS ver. 15.0 for Window and Microsoft Office Excel 2007, and expressed as Mean±Standard Deviation (SD). Comparison of continuous variables between Perhexiline and Placebo baseline data were determined by unpaired Student's t-test (2-tail) if variables were normally distributed and the Mann-Whitney U-test if the data were non-normally distributed. […]

symptomatic HCM patients [5] = assay: Cardiopulmonary exercise test (peak oxygen consumption), randomized double-blind placebo-controlled study in HCM; type: in vivo, human
Source text: as §1, §2
This was performed using a Schiller CS-200 Ergo-Spiro exercise machine which was calibrated before every study. […]
as §4, §5

[6] = perhexiline group (n=25), during the first week of treatment

C1CCC(C(CC2CCCCN2)C2CCCCC2)CC1 (centres unmarked) [perhexiline, 2-(2,2-dicyclohexylethyl) piperidine]
NYHA score (of breathlessness), in words (symptomatic HCM patients [1]; FIG. 5E legend): falls (improves) | Minnesota living with heart failure questionnaire score, in words (symptomatic HCM patients [1]; FIG. 5F legend): falls (=improved quality of life) | Minnesota Living with heart failure questionnaire score after treatment (symptomatic HCM patients [1]; perhexiline group, after treatment, fall in score = improvement, p<0.001 vs placebo): 28±0.75 | Minnesota Living with heart failure questionnaire score at baseline (symptomatic HCM patients [1]; perhexiline group, before treatment): 36.13±0.94 | Patients with worsening in NYHA classification (symptomatic HCM patients [1]; perhexiline group, placebo 20 percent): 8% | Patients with improvements in NYHA classification (symptomatic HCM patients [1]; perhexiline group, placebo 30 percent): 67% | Side effects: dizziness (number of patients) (symptomatic HCM patients [2]; [6]): 2 | Side effects: transient nausea (number of patients) (symptomatic HCM patients [2]; [6]): 3 | Deaths during the study period (symptomatic HCM patients [2]; whole study, perhexiline and placebo groups): no deaths | Effect on PCr/ATP ratio (energetic status of heart), in words (symptomatic HCM patients [3]; FIG. 5B legend, unchanged in placebo group): improves | PCr/γATP ratio after treatment (symptomatic HCM patients [3]; perhexiline group, resting, after treatment, p=0.003 vs placebo): 1.73±0.02 | PCr/γATP ratio at baseline (symptomatic HCM patients [3]; perhexiline group, resting, before treatment, mean±SD): 1.27±0.02 | Effect on nTTPF response to exercise, in words (symptomatic HCM patients [4]; FIG. 5D legend, p=0.03 vs placebo): normalises the response to similar to that seen in healthy controls | nTTPF at rest on therapy (symptomatic HCM patients [4]; perhexiline group, on therapy, at rest): 0.19 ± 0.003 s | nTTPF during exercise on therapy (symptomatic HCM patients [4]; perhexiline group, on therapy, exercise at 50% of heart rate reserve): 0.19 ± 0.004 s | nTTPF change rest to exercise on therapy (symptomatic HCM patients [4]; perhexiline group, on therapy, p=0.03 between perhexiline and placebo response): 0.00 ± 0.003 s | Effect on peak VO2 (exercise capacity), in words (symptomatic HCM patients [5]; FIG. 5A legend, p=0.003 vs placebo): increases | Peak VO2 at baseline (symptomatic HCM patients [5]; perhexiline group (n=25), before treatment, mean±SD): 22.2 ± 0.2 mL/min/kg | Peak VO2 after treatment (symptomatic HCM patients [5]; perhexiline group, 100 mg OD titrated to serum level, minimum 3 months, p=0.003 vs placebo response): 24.29 ± 0.2 mL/min/kg | Increase in Peak VO2 after treatment (symptomatic HCM patients [5]; perhexiline group, after treatment vs baseline, placebo fell by -1.23, p=0.003): 2.09 mL/min/kg
